In assay [1] the test system is SKBR3 cells. In words: MTT assay, SKBR3 cells. Type of assay: cell-based, human. On the procedure: The MTT assay is generally used to assess cellular viability as a function of mitochondrial activity. The assay was used to examine effects of cisplatin with and without the c-erbB-2 monoclonal antibodies and was carried out as follows:
MTT was added for 4 hours and the crystals dissolved with isopropanol/0.04N HCI/0.3% SDS.

In assay [2] the test system is SKBR3 cells. In words: Soft agar clonogenic assay, SKBR3. Type of assay: cell-based, human. Particulars: 10 ng/ml cisplatin alone. As to the method: The effects of TAb 250 alone and in combination with cisplatin (CDDP) on growth of human tumor cells in soft agar was assessed. SKOV3 (6,000 cells per ml) or SKBR3 (12,000 cells per ml) were incubated in assay medium (DMEM:F12, University of California at San Francisco Cell Culture Facility), 10% dialyzed FBS 0.1 mM nonessential amino acids in solution obtained from Gibco, 1 mM sodium pyruvate and 10 mM HEPES) for 30 minutes at 37° C. with 1 or 10 μg/ml TAb 250. CDDP at concentrations of either 10 ng/ml for SKBR3 cells and 100 ng/ml for SKOV3 cells was then added and the incubation continued for 1.5 hours at 37° C. An equal volume of assay medium containing 0.8% Sea Plaque agarose and appropriate concentrations of TAb 250 and CDDP were combined with the cell mixture. Triplicate 1 ml aliquots were dispensed onto base layers of 0.8% agarose in assay medium containing the appropriate amounts of TAb 250, CDDP or both, in 35 mm dishes. After 14 days at 37° C./5% CO2 in a humidified chamber, viable colonies were stained for 24 hours with Nitro Blue tetrazolium dye (Sigma, 500 μg in 1 ml PBS). Stained colonies greater than 60 μ were scored positive using a FAS III Image Analysis System (Bausch and Lomb, Rochester, N.Y.). The data are expressed as a percentage of untreated control colonies formed. In control dishes, SKOV3 and SKBR3 cells formed 859+/−16 and 1107+/−72 colonies, respectively. […]

The structures appear in SMILES notation.

In the case of `N[C@@H](Cc1ccc(N(CCCl)CCCl)cc1)C(=O)O` [melphalan, 4-[bis(2-chloroethyl)amino] L-phenylalanine], in the assay with SKBR3 cells [1] (20 μg of melphalan alone), the proliferation is 70 % of control.
In the case of `N.N.[Cl][Pt][Cl]` [cisplatin, cis-diamminedichloroplatinum], the “colony formation in soft agar” value in the assay with SKBR3 cells [2] is “did not inhibit colony formation”. Besides, in the assay with SKBR3 cells [1] (1.0 μg of cisplatin alone), the cell growth is on record as 65 % of control. Moreover, the “toxicity to the cells” value in the assay on SKBR3 cells [1] (3.0 μg of cisplatin alone) is “highly toxic”.
`N.N.O=C([O-])C1(C(=O)[O-])CCC1.[Pt+2]` [carboplatin, cis-diammine-1,1-cyclobutane dicarboxylate platinum]: in the assay with SKBR3 cells [1] (16 μg of carboplatin alone), the cell proliferation is reported as 63 % of control. Further, the “synergistic response of the drug combined with TAb 250” value in the assay on SKBR3 cells [1] (MTT assay, carboplatin 16 μg, melphalan 20 μg) is reported as “synergistic effects”.

The values are drawn from patent publication US6884418B1, “Use of ligand-mimicking agents and anti-neoplastic drugs in cancer therapy” (Berlex Laboratories, Inc., priority 1989, dated 2005).
